Measured values taken from patent US6958162B2, “Herbal composition for treating allergic disorders and method for making the same” (Industrial Technology Research Institute, priority 2003, dated 2005).

Key:
[1] = system: IL-4 released from EL-4 cells; experiment: Measurement of IL-4 released from stimulated EL-4 cells (ELISA); format: cell-based, mouse; details: FIG. 3b, 3c
Description: During the day of experiment, the herbal drug was diluted in the cell culture medium to the end point (0.5 μg/ml, 5 μg/ml, or as appropriate). The ability of each herbal composition and its mixtures to affect the production of IL-4, TNF-alpha, and cLT was measured.
The mouse thymoma cell lines, EL-4 were incubated with each composition or mixture for 2 hours before it was stimulated by 100 ng/ml of A23187 and PMA. Samples of tissue culture medium were collected at the end of 24 hours incubation and stored at −70 degrees C. prior to assay.
Cytokine measurements were carried out using the commercially available ELISA assay kit (R&D Systems, Minneapolis, Minn.) in accordance with the supplier's protocols. In brief, 100 μl of the assay buffer supplied was added to each of the wells of a micro-titer plate containing pre-bound anti-cytokine antibody, followed by 100 μl of a standard or sample solution, diluted appropriately for the concentration range measured. All incubations were carried out at 37 degrees C. After two hours incubation, the plates were washed four times with a wash buffer, and the second antibody, Detection Antibody, was added with 1:200 in Reagent Diluent to each well. The plates were sealed and incubated for 2 hours. […] Optical sensitivity was determined at 450 nm using a Molecular Devices of micro-titer plate reader.

[2] = system: inflammatory cells in the BAL fluids; experiment: Der p 2 induced allergic airway inflammation in mice: cell counts in BAL fluid; format: in vivo, Balb/c mice; details: DEX 1 μg/mouse/day, mean ± SEM
Description: (§1) Male Balb/c mice were obtained from the National Laboratory Breeding Research Center in Taiwan and were raised in a specific pathogen-free environment. These mice used were between 6 and 8 weeks of age. Groups of six mice were caged separately according to their treatments. Recombinant Dermatophoides pteronyssinus group 2 (Der p 2) was prepared from Dr. Tsai's lab and test drugs, Traditional Chinese Medicine A (TCM-A, or 1217A in FIGS. 7, 8, 9, and 10) and Traditional Chinese Medicine B (TCM-B, or 1217B in FIGS. 7, 8, 9, and 10) were prepared from the Biomedical Engineering Center Industrial Technology Research Institute, Hsinchu, Taiwan.
Mice were immunized by intraperitoneal (i.p.) injection of 1 μg/0.1 ml Der p 2 emulsified in 4 μg/0.062 ml aluminum hydroxide Al(OH)3 (Whitehall Lab Ltd, Punchbowel, Australia) on day 0 and day 7. After immunization, mice were fed with TCM for 3 weeks. Mice of different groups were fed with Dexamethasome (1 μg/mouse/day), TCM-A (20 mg/mouse/day), TCM-B (20 mg/mouse/day) or normal saline 500 μl/mouse/day. On days 28 and 35, mice were lightly anesthetized with an i.p. injection of 60 mg/kg of sodium pentobarbital (Sigma Chemical Co., St. Louis, Mo., USA) and intratracheally (i.t.) inoculated with 1 μg/50 μl of Der p 2. Twenty-four hours after the second i.t. inoculation, mice were sacrificed after pulmonary function measurement.
After pulmonary function measurement, bronchoalveolar lavage (BAL) was performed with the following procedure. Two separate injections of 1 ml sterile endotoxin-free saline were given into the lung via the trachea of each mouse. Approximately 1.8 ml of the bronchoalveolar lavage (BAL) fluid was recovered constantly. The BAL fluids were aspirated and stored at −70° C. until assay. After total leukocyte counting, a cytospin preparation of […] BAL fluid was stained with Liu stain (Tonyar Diagnostic Inc, Taipei County, Taiwan) and differential counts were performed on 200 cells. […] Blood samples were obtained via the orbital sinus and sera were collected and stored at −70° C. until assay.

pulmonary function = experiment: Pulmonary function determination (barometric plethysmograph, methacholine) in Der p 2 allergic mice; format: in vivo, Balb/c mice; details: DEX 1 μg/mouse/day, TCM 20 mg/mouse/day; result in words
Description: as §1, with “Taiwan. […]” for “Taiwan.”
Each mouse was placed inside a barometric plethysmograph (Buxco Electronics, Troy, N.Y.). […] The pressure signal was amplified, digitized via an A/D convert card, and sent to a computer with a BioSystem XA program (Buxco Electronics, Troy, N.Y.), which sampled and calculated desired respiratory parameters. […]
An aerosol was generated by placing a 5 ml saline or methacholine (1.56 to 50.00 mg/ml) solution in the cup of an ultrasonic nebulizer (DeVilbiss, Somerset, Pa.) and it was delivered via a connecting tube and a three-way connector to the animal chamber of the plethysmograph. […] At first, each mouse inhaled the saline aerosol for 3 mins and then the respiratory parameters were measured for 3 mins. […]

Row | Structure (SMILES) | effect on IL-4 released from EL-4 cells (excipients and powder with excipients) [1] | Differential Counts, Eos ([2]; BAL fluid, TCM 20 mg/mouse/day) | Differential Counts, Lym ([2]; BAL fluid, TCM 20 mg/mouse/day) | Differential Counts, Macro ([2]; BAL fluid, TCM 20 mg/mouse/day) | Differential Counts, Neu ([2]; BAL fluid, TCM 20 mg/mouse/day) | Total cell NO in BAL fluid ([2]; fed 3 weeks, TCM-A or TCM-B 20 mg/mouse/day) | pulmonary function of allergic animals (methacholine from low dose to high dose) (pulmonary function)
1 | O=P([O-])([O-])[O-].O=P([O-])([O-])[O-].[Ca+2].[Ca+2].[Ca+2] [Ca3(PO4)2] | do not have any effect |  |  |  |  |  | 
2 | C[C@@H]1C[C@H]2[C@@H]3CCC4=CC(=O)C=C[C@]4(C)[C@@]3(F)[C@@H](O)C[C@]2(C)[C@@]1(O)C(=O)CO [DEX, Dexamethasone] |  | 3.2 ± 0.4 ×10^4/ml | 9.4 ± 1.5 ×10^4/ml | 29.2 ± 4.4 ×10^4/ml | 6.6 ± 1.0 ×10^4/ml | 46.4 ± 2.2 ×10^4/ml | can improve the pulmonary function
